In patent US6093720A, “Trans apovincaminic acid ester derivatives” (Richter Gedeon Vegyeszeti GmbH, priority 1995, dated 2000):
“And” between values parts separate entries of the source, which are not always exact repeats. Equal entries are not always repeated. “Also recorded” adds a separate entry of the source. Structures can show the parent of a compound that is named as a salt.

Key:
[1] = system: NADPH-Induced Lipid Peroxidation in Brain Microsomes; experiment: NADPH-induced (enzymatic) lipid peroxidation in brain microsomes (AEI); format: biochemical, rat (male Hannover-Wistar); settings: for IC50: NADPH-induced lipid peroxidation, rat brain microsomes, 37° C., 20 minutes, pH 6.8
Experimental: Effect on the NADPH-Induced Lipid Peroxidation in Brain Microsomes
Male Hannover-Wistar rats with a body weight of 150-250 g were used for the preparation of microsomes. After decapitation, the whole brain was removed and homogenized in a 10-fold volume of ice-cold 0.25 M saccharose solution. The homogenate was centrifuged in a Hitachi CR 26H equipment at 15000 g at 4° C. for 10 minutes, then the supernatant was collected and centrifuged in a Hitachi SCP 85H apparatus at 78000 g at 4° C. for 60 minutes. After suspending the precipitate in 0.15 M KCl solution, the protein content of the obtained solution was determined and then adjusted to 10 mg/ml concentration. The microsome thus obtained was frozen in a dry ice-acetone mixture and stored at -70° C. until use. The components of the incubation mixture were: 50 mM TRIS-HCl (pH 6.8), 0.2 mM FeCl3, 1 mM KH2 PO4, 0.5 mM ADP, 0.2 mg of microsomes as well as the compound to be tested. The incubation was carried out with a final volume of 1 ml and with an incubation time of 20 minutes at a temperature of 37° C. The lipid peroxidation was induced by adding 0.4 mM NADPH.
The formation of malondialdehyde was determined by using thiobarbituric acid. After stopping the reaction, 1 ml of 1% thiobarbituric acid solution each was weighed to the samples, which were then placed in a water bath of about 100° C. for 10 minutes. Subsequently, the samples were centrifuged at 2000 g in a Janetzki K70 apparatus at 4° C. for 10 minutes. The absorbance values of the colored supernatant were measured at 535 nm in a Hitachi 150-20 spectrophotometer. Malondialdehyde bis(diethylacetal) was used as reference compound.

[2] = system: Fe^2+ -Induced Lipid Peroxidation in Brain Homogenate; experiment: Fe^2+-induced (non-enzymatic) lipid peroxidation in brain homogenate (ANI); format: biochemical, rat (Hannover-Wistar); settings: for antioxidant activity in Fe^2+-induced lipid peroxidation, in words: comparison with idebenone, DL-α-tocopherol or silymarin
Experimental: Effect on the Fe^2+ -Induced Lipid Peroxidation in Brain Homogenate
After decapitating Hannover-Wistar rats weighing 150-220 g each, the whole brain was homogenized in 9 volumes of ice-cold Krebs-Ringer's buffer containing 15 mM HEPES, (4-(2-hydroxyethyl)-1-piperazinylethanesulfonic acid) (pH 7.4), 140 mM NaCl7 3.6 mM KCl, 1.5 mM CaCl2, 0.7 mM MgCl2, 1.4 mM KH2 PO4 and 10 glucose. Then the protein content of the solution was determined and adjusted to 10 mg/ml concentration.
After adding the inhibitory agent to be tested in a volume of 5 μl to 200 μl of the homogenate, the incubation mixture was incubated at 37° C. for 20 minutes. The Fe^2+ -induced lipid peroxidation was accomplished by adding 5 μl of 8 mM Fe2 (NH4)2 (SO4)2 solution. After passing of the incubation time, the reaction was stopped by adding 1 ml of a stopping solution containing 0.8 M HCl and 12.5% trichloroacetic acid, then the samples were centrifuged at 2000 g in a Janetzki K70 apparatus at 4° C. for 10 minutes.
To a 0.5 ml portion of the supernatant, 1 ml of 1% thiobarbituric acid solution was added, then the samples were placed in a water bath of 100° C. for 20 minutes. The color intensity developed was determined at 535 nm with a Hitachi 150-20 spectrophotometer by using malondialdehyde bis(diethylacetal) as reference compound.
ANI: non-enzymatically (Fe^2+) induced lipid peroxidation test

[3] = Antiischemic effect on bilateral (carotid) artery ligation model, mortality; format: in vivo, mice; settings: for mortality at 2 mg/kg: 24 h, 30 minutes before 5-minute bilateral carotid ligation, control mortality 70%
Experimental: 1. Antiischemic Effect (On Bilateral Artery Ligation Model)
N. Himori et al.: Cerebral ischemia model with conscious mice involvement of NMDA receptor activation and derangement of learning and memory ability [J. Pharmacol. Meth. 23, 311-327 (1990)].
Carotid arteries of mice (weighing 30 to 32 g each) were exposed bilaterally under anaesthesia by 450 mg/kg of intraperitoneal (i.p.) chloral hydrate. The sympathetic and vagal nerves were separated and a loose ligation was bilaterally placed below the carotid arteries. Both ends of the ligation were led out on the back, behind the ears. Next day, in conscious state both ends of the ligation were pulled resulting in the stopping of blood supply through the carotid arteries. This was maintained for 5 minutes, then released to provide the reperfusion. The number of animals died during the 5-minute period and the following 24 hours were registered. The calculation of significance was performed by the chi^2 test. The pre-treatment with the compound was carried out intraperitoneally (i.p.) 30 minutes before the ligation.
The transient dramatic decrease in the cerebral blood supply, then the starting of reperfusion after stopping the ligation leads to the formation of extremely toxic oxygen free radicals (superoxide radical, hydrogen peroxide). […] [ED50 is the dose (as mg/kg) diminishing the mortality by 50% in comparison to the untreated is control group].

[4] = Diazepam-induced anterograde amnesia (passive avoidance); format: in vivo, NMRI mice; settings: for Inhibition of the diazepam-induced amnesia %: 1 hour before learning, diazepam 3 mg/kg i.p.; for antiamnesic activity, in words: diazepam-induced anterograde amnesia, 0.1 and 10 mg/kg p.o.
Description: 2. Diazepam-Induced Anterograde Amnesia C. L. Broekkamp et al.: The comparative effects of benzodiazepines, progabide and PK 9084 on acquisition of passive avoidance in mice [Psychopharmacology (Berlin) 83, 122-125 (1984)]. The memory test was accomplished on NMRI mice weighing 25 to 28 g each by using the passive avoidance, a method based on the genetically determined nyctophilic behavior of rodents. During the learning period, the pre-selected animals (mice entering the dark space from the illuminated space within 30 seconds) were placed in an illuminated space. After entering the dark space, the animal received an electric shock (1 mA for […]) onto its planta within 30 seconds, then the time until entry to the dark space (latency period) was registered. After 24 hours, the animals were placed again in the illuminated space and the time until crossing over to the dark space (retention time=T with a time limit of 300 seconds) was measured. For inducing an anterograde amnesia, the animals were treated intraperitoneally with 3 mg/kg of diazepam 30 minutes before learning. The compounds were administered orally in 0.1 or 10 mg/kg doses, respectively 1 hour before learning. [formula]

[5] = Antiischemic effect after oral administration; format: in vivo
[6] = "Focal" ischemia models elicited in one well-determined area of the brain; format: in vivo
[7] = Electroshock-induced retrograde amnesia model; format: in vivo; settings: oral dose range between 0.1 and 10 mg/kg
[8] = Protection against ischemia-induced injury of memory; format: in vivo; settings: oral dose range between 1 and 10 mg/kg
[9] = Antiamnesic activity in rats; format: in vivo

CCC(=O)OCCOC(=O)C1=C[C@@]2(CC)CCCN3CCc4c(n1c1ccccc41)[C@@H]32 [Compound 1011038, (+)-trans apovincaminic acid 2-(propionyloxy)ethyl ester(3α,16β)hydrochloride]
IC50 [1]: 8.4 µM and < 10 µM | inhibition of NADPH-induced lipid peroxidation relative to silymarin (times as strongly) ([1]; compared with silymarin): about 20 times | IC50 ([2]; Fe^2+-induced lipid peroxidation, rat brain homogenate, 37° C., 20 minutes, pH 7.4): 8.7 µM and < 10 µM | antioxidant activity in Fe^2+-induced lipid peroxidation, in words [2]: about twice as active as idebenone or DL-α-tocopherol | mortality at 2 mg/kg ([3]; Mus musculus, ip, 2 mg/kg i.p.): 60% | Inhibition of the diazepam-induced amnesia % ([4]; 0.1 mg/kg p.o.): 64% | Inhibition of the diazepam-induced amnesia % ([4]; 10.0 mg/kg p.o.): 24% | antiamnesic activity, in words [4]: particularly effective

CC[C@@]12C=C(C(=O)OCCOC(C)=O)n3c4c(c5ccccc53)CCN(CCC1)[C@@H]42 [Compound 2705279, (-)-trans apovincaminic acid 2-acetoxyethyl ester(3β,16α)monohydrochloride]
IC50 [1]: 6.3 µM and < 10 µM | antioxidant effect in NADPH-induced lipid peroxidation, in words ([1]; comparison with reference compounds): comparable to that of idebenone | antioxidant activity compared with idebenone or vinpocetine, in words ([1]; summary statement, in vitro and in vivo): surpasses both in vitro and in vivo that of idebenone or vinpocetine | antioxidant activity in Fe^2+-induced lipid peroxidation, in words [2]: about twice as active as idebenone or DL-α-tocopherol | mortality at 2 mg/kg ([3]; Mus musculus, ip, 2 mg/kg i.p.): 10 to 30% | ED50 ([3]; Mus musculus, ip, dose diminishing the mortality by 50% in comparison to the untreated control group): 0.76 mg/kg | antiischemic activity, in words ([3]; bilateral artery ligation, mice, 2 mg/kg i.p.): most active | Inhibition of the diazepam-induced amnesia % ([4]; 0.1 mg/kg p.o.): 79% | Inhibition of the diazepam-induced amnesia % ([4]; 10.0 mg/kg p.o.): 119% | antiamnesic activity, in words [4]: particularly effective; also recorded: significant protective effect in both doses used and an activity by far exceeding that of vinpocetine; also recorded: most active in this field | antiischemic effect, in words [5]: can be measured after oral administration, too | activity on focal ischemia models, in words [6]: active | protective action, in words [7]: dose-dependent protective action | protection against ischemia-induced injury of memory, in words [8]: protected against the ischemia-induced injury of memory | antiamnesic activity, in words [9]: could well be measured in rats
